# Measured values published in ChEMBL document CHEMBL1131859, “Conformationally restricted paclitaxel analogues: macrocyclic mimics of the "hydrophobic collapse" conformation” (1999).
# Activity calls are given as the source filed them. The calls are words filed in the database; no cut-off is given here.
# Columns and labels:
# [1] = Inhibitory activity against microtubule assembly stimulated by paclitaxel (1 uM) at a concentration of 20 uM of the compound; No inhibition; type: functional
# [2] = tested on: B16; experiment: Tested for cytotoxicity against B16 melanoma cells expressed as the ED50 to that of ED50 of paclitaxel.; type: functional, Mus musculus
# [3] = Tested for activity using microtubule assembly assay expressed as the ED50 to that of ED50 of paclitaxel.; type: functional
# [4] = Tested for activity using microtubule assembly assay expressed as the ED50 to that of ED50 of paclitaxel; In active; type: functional
# [5] = tested on: B16; experiment: Tested for cytotoxicity against B16 melanoma cells expressed as the ED50 to that of ED50 of paclitaxel; In active; type: functional, cell-based; conditions: Mus musculus
structure (smiles),measurement,setting,value
CC(=O)O[C@H]1C(=O)[C@@]2(C)[C@H]([C@@H]3OC(=O)c4cccc(c4)/C=C\c4ccccc4[C@H](NC(=O)c4ccccc4)[C@@H](O)C(=O)OC4C[C@]3(O)C(C)(C)C1=C4C)[C@]1(OC(C)=O)CO[C@@H]1C[C@@H]2O,Ratio,[1],inactive
CC(=O)O[C@H]1C(=O)[C@@]2(C)[C@H]([C@H](OC(=O)c3ccccc3)[C@]3(O)CC(OC(=O)[C@H](O[Si](C)(C)C(C)(C)C)[C@@H](NC(=O)c4ccccc4)c4cccc(I)c4)C(C)=C1C3(C)C)[C@]1(OC(C)=O)CO[C@@H]1C[C@@H]2O (stereo not given in full),Ratio,[2],27
same,Ratio,[3],4.6
CC(=O)O[C@H]1C(=O)[C@@]2(C)[C@H]([C@H](OC(=O)c3ccccc3)[C@]3(O)CC(OC(=O)/C=C(\NC(=O)c4ccccc4)c4cccc(I)c4)C(C)=C1C3(C)C)[C@]1(OC(C)=O)CO[C@@H]1C[C@@H]2O (stereo not given in full),Ratio,[4],inactive
same,Ratio,[5],inactive
